In patent US8394807B2, “Quinazoline inhibitors of BACE 1 and methods of using” (Purdue Research Foundation, priority 2008, dated 2013):

What follows are molecules tested against T1, memapsin 2 (Cricetulus griseus, UniProt G3IAK4) (assay: Cellular Aβ IC50 determination (Aβ40 sandwich ELISA)). Conditions: symbol in parentheses; Chinese hamster ovary cells over-expressing human APP695 (London and Swedish mutations), Aβ40, 24 h; read-out: Activity against memapsin 2: (IC50).
T1 construct: endogenous in cells; host or cells: Chinese hamster ovary cells over-expressing human APP695 (London and Swedish mutations)
T1 sequence (G3IAK4 22-501): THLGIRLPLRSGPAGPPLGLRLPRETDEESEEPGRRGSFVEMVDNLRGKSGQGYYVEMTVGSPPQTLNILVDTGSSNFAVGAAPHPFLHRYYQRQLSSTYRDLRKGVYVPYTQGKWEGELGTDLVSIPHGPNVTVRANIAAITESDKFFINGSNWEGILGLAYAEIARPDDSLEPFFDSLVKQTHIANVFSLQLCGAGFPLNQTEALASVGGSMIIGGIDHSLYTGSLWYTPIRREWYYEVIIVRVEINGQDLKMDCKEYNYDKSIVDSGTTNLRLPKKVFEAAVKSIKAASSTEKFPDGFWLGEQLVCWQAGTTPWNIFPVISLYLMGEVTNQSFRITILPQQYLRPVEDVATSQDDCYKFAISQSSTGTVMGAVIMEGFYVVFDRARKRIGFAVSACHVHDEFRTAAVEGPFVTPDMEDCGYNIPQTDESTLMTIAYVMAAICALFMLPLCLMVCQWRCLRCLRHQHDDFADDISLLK
Type: cell-based
Experimental: Cellular Aβ C50 Determinations. The potency of compounds against memapsin 2 catalytic activity is determined in a cellular assay of Aβ production. […] Chinese hamster ovary cells that over-express human APP695 with the London and Swedish mutations are seeded in multi-well plates at 10% confluency. Compounds are dissolved in DMSO to concentrations near 1 mM, and diluted into culture media to a final concentration near 4 μM (final 0.4% DMSO). Compounds are diluted serially and applied to cells in multi-well plates 48 h after seeding. Incubation is continued in 5% CO2 at 37 degrees C. for 24 h. Aliquots are removed and assayed for Aβ40 content using a sandwich ELISA (BioSource International). Amount of Aβ40 over the range of concentration of compounds, relative to control incubations, are fit to a 4-parameter IC50 model.

| Compound | IC50 [nM] |
| --- | --- |
| CN(CCC[C@@H](C1CCCCC1)N1Cc2cc(Oc3ccccc3)ccc2N=C1N)C1CCCCC1 [Inhibitor 0188] | < 50 |
| CN(C(=O)OC[C@@H](C1CCCOC1)N1Cc2cc(Oc3ccccc3)ccc2N=C1N)C1CCCCC1 (some centres unmarked) [Inhibitor 0318] | < 5000 |
| CN(C(=O)OC[C@@H](c1ccccc1)N1Cc2cc(Oc3ccccc3)ccc2N=C1N)C1CCCCC1 [Inhibitor 0328] | < 5000 |
| CN(CCC[C@@H](c1ccccc1)N1Cc2cc(Oc3ccccc3)ccc2N=C1N)C1CCCCC1 [Inhibitor 0418] | < 5000 |
| NC1=Nc2ccc(Oc3ccccc3)cc2CN1[C@@H](CCN(Cc1ccccc1)Cc1ccccc1)C1CCCCC1 [Inhibitor 0448] | < 5000 |
| CN(C(=O)OC[C@@H](C1CCCCC1)N1Cc2cc(Oc3ccccc3)ccc2N=C1N)C1CCCCC1 [Inhibitor 0458] | > 5000 |
| CN(C(=O)OCC(C1CCOC1)N1Cc2cc(Oc3ccccc3)ccc2N=C1N)C1CCCCC1 (centres unmarked) [Inhibitor 0548] | < 5000 |

These molecules were tested against memapsin 2 (Homo sapiens, UniProt P56817) (assay: Inhibition of memapsin 2 catalytic activity toward fluorogenic substrate FS-2). Conditions: pH 4, 37° C., 20 minutes pre-incubation, tight-binding model; symbol outside parentheses; read-out: Activity against memapsin 2: Ki.
memapsin 2 (Homo sapiens, UniProt P56817), sequence (P56817 46-501): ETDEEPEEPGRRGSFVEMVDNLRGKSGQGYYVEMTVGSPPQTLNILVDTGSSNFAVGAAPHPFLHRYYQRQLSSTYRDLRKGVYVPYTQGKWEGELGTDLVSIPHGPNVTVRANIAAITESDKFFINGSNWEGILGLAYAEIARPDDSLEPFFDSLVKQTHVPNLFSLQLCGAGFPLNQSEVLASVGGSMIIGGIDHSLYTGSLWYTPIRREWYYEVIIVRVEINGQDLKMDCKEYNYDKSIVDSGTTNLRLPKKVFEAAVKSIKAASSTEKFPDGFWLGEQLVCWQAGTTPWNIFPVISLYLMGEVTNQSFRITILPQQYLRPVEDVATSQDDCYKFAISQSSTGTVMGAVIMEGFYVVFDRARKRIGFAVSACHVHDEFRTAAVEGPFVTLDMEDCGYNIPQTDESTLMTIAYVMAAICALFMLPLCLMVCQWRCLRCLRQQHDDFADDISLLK
Type: biochemical
Experimental: Inhibition Of Memapsin 2. […] Potency of compounds were determined by measurement of their inhibition of memapsin 2 catalytic activity toward a fluorescent substrate. […] Briefly, assays were performed at pH 4, 37° C., by pre-incubation of memapsin 2 enzyme with compound for 20 minutes. Activity measure was initiated by addition of a fluorogenic substrate FS-2 (Bachem Americas, Torrance, Calif.). Fluorescent signal increase over time was measured as a rate of hydrolysis of the peptide substrate. […]

| Compound | Ki [nM] |
| --- | --- |
| Cc1csc(CN(C(=O)OC[C@@H](C2CCCCC2)N2Cc3cc(Oc4ccccc4)ccc3N=C2N)C2CCCCC2)n1 [Inhibitor 119] | < 500 |
| CN(CCC[C@@H](C1CCCCC1)N1Cc2cc(Oc3ccccc3)ccc2N=C1N)C1CCCCC1 [Inhibitor 0188] | < 50 |
| CN(C(=O)OC[C@@H](C1CCCOC1)N1Cc2cc(Oc3ccccc3)ccc2N=C1N)C1CCCCC1 (some centres unmarked) [Inhibitor 0318] | < 500 |
| CN(C(=O)OC[C@@H](c1ccccc1)N1Cc2cc(Oc3ccccc3)ccc2N=C1N)C1CCCCC1 [Inhibitor 0328] | < 5000 |
| CN(CCC[C@@H](C1CCCOC1)N1Cc2cc(Oc3ccccc3)ccc2N=C1N)C1CCCCC1 (some centres unmarked) [Inhibitor 0408] | < 500 |
| Cc1csc(CN(CCC[C@@H](C2CCCCC2)N2Cc3cc(Oc4ccccc4)ccc3N=C2N)C2CCCCC2)n1 [Inhibitor 409] | < 500 |
| CN(CCC[C@@H](c1ccccc1)N1Cc2cc(Oc3ccccc3)ccc2N=C1N)C1CCCCC1 [Inhibitor 0418] | < 5000 |
| NC1=Nc2ccc(Oc3ccccc3)cc2CN1[C@@H](CCNCC1CCCCC1)C1CCCCC1 [Inhibitor 0428] | < 500 |
| CC(NCC[C@@H](C1CCCCC1)N1Cc2cc(Oc3ccccc3)ccc2N=C1N)c1ccccc1 (some centres unmarked) [Inhibitor 0438] | < 500 |
| NC1=Nc2ccc(Oc3ccccc3)cc2CN1[C@@H](CCN(Cc1ccccc1)Cc1ccccc1)C1CCCCC1 [Inhibitor 0448] | < 500 |
| CN(C(=O)OC[C@@H](C1CCCCC1)N1Cc2cc(Oc3ccccc3)ccc2N=C1N)C1CCCCC1 [Inhibitor 0458] | < 50 |
| COC[C@@H](NC(=O)OC[C@@H](C1CCCCC1)N1Cc2cc(Oc3ccccc3)ccc2N=C1N)C(=O)OC [Inhibitor 0469] | < 500 |
| Cc1nc(CN(CCC[C@@H](C2CCCCC2)N2Cc3cc(Oc4ccccc4)ccc3N=C2N)C2CCCCC2)c(C)o1 [Inhibitor 0509] | < 500 |
| Cc1nc(CN(C(=O)OC[C@@H](C2CCCCC2)N2Cc3cc(Oc4ccccc4)ccc3N=C2N)C2CCCCC2)co1 [Inhibitor 0519] | < 5000 |
| CN(CCC[C@@H](C1CCCCC1)N1Cc2cc(Oc3ccccc3)ccc2N=C1N)c1ccccc1 [Inhibitor 0538] | < 500 |
| CN(C(=O)OCC(C1CCOC1)N1Cc2cc(Oc3ccccc3)ccc2N=C1N)C1CCCCC1 (centres unmarked) [Inhibitor 0548] | < 500 |
| CN(CCCC(C1CCOC1)N1Cc2cc(Oc3ccccc3)ccc2N=C1N)C1CCCCC1 (centres unmarked) [Inhibitor 0568] | < 500 |
| Cc1nc(CN(C(=O)OC[C@@H](C2CCCCC2)N2Cc3cc(Oc4ccccc4)ccc3N=C2N)C2CCCCC2)cs1 [Inhibitor 0579] | < 5000 |
| Cc1nc(CN(CCC[C@@H](C2CCCCC2)N2Cc3cc(Oc4ccccc4)ccc3N=C2N)C2CCCCC2)cs1 [Inhibitor 0589] | < 500 |
| CN(C)CC[C@@H](C1CCCCC1)N1Cc2cc(Oc3ccccc3)ccc2N=C1N [Inhibitor 0618] | < 5000 |

| Compound | Ki [nM] |
| --- | --- |
| CN(CC[C@@H](C1CCCCC1)N1Cc2cc(Oc3ccccc3)ccc2N=C1N)Cc1ccccc1 [Inhibitor 0628] | < 500 |
| CN(C(=O)OC[C@@H](C1CCCCC1)N1Cc2cc(Oc3ccccc3)ccc2N=C1N)C1CCCCC1O (some centres unmarked) [Inhibitor 0648] | < 500 |
| NC1=Nc2ccc(Oc3ccccc3)cc2CN1[C@@H](COC(=O)NC1CCCCC1)C1CCCCC1 [Inhibitor 0658] | < 500 |
| CC(C)c1nc(CN(CCC[C@@H](C2CCCCC2)N2Cc3cc(Oc4ccccc4)ccc3N=C2N)C2CCCCC2)cs1 [Inhibitor 0659] | < 500 |
| NC1=Nc2ccc(Oc3ccccc3)cc2CN1[C@@H](COC(=O)NC1CCCCC1O)C1CCCCC1 (some centres unmarked) [Inhibitor 0668] | < 500 |
| Cc1nc(C)c(CN(CCC[C@@H](C2CCCCC2)N2Cc3cc(Oc4ccccc4)ccc3N=C2N)C2CCCCC2)o1 [Inhibitor 0789] | < 500 |
| Cc1nc(CCN(CCC[C@@H](C2CCCCC2)N2Cc3cc(Oc4ccccc4)ccc3N=C2N)C2CCCCC2)cs1 [Inhibitor 0809] | < 500 |
| Cc1nc(CN(C(=O)OC[C@@H](C2CCCCC2)N2Cc3cc(Oc4ccccc4)ccc3N=C2N)C2CCCCC2)c(C)o1 [Inhibitor 908] | < 500 |
| Cc1nc(CCN(CCC[C@@H](C2CCCCC2)N2Cc3cc(Oc4ccccc4)ccc3N=C2N)C2CCCCC2)co1 [Inhibitor 0909] | < 500 |
| Cc1ncoc1CN(CCC[C@@H](C1CCCCC1)N1Cc2cc(Oc3ccccc3)ccc2N=C1N)C1CCCCC1 [Inhibitor 0929] | < 500 |
| NC1=Nc2ccc(Oc3ccccc3)cc2CN1[C@@H](CCCN(Cc1cscn1)C1CCCCC1)C1CCCCC1 [Inhibitor 0979] | < 500 |
| COC[C@H](NC(=O)OC[C@@H](C1CCCCC1)N1Cc2cc(Oc3ccccc3)ccc2N=C1N)C(=O)OC [Inhibitor 0989] | < 500 |
| Cn1cc(CN(CCC[C@@H](C2CCCCC2)N2Cc3cc(Oc4ccccc4)ccc3N=C2N)C2CCCCC2)cn1 [Inhibitor 1049] | < 500 |
| COCc1nc(CN(CCC[C@@H](C2CCCCC2)N2Cc3cc(Oc4ccccc4)ccc3N=C2N)C2CCCCC2)cs1 [Inhibitor 1099] | < 500 |
| COCC(COC)N(C)C(=O)OC[C@@H](C1CCCCC1)N1Cc2cc(Oc3ccccc3)ccc2N=C1N [Inhibitor 1139] | < 5000 |
| Cc1nc(CN(CCC[C@@H](C2CCCCC2)N2Cc3cc(Oc4cccnc4)ccc3N=C2N)C2CCCCC2)cs1 [Inhibitor 1209] | < 5000 |
| Cc1nc(CN(CCC[C@@H](C2CCCCC2)N2Cc3cc(Oc4ccccn4)ccc3N=C2N)C2CCCCC2)cs1 [Inhibitor 1219] | < 5000 |
| NC1=Nc2ccc(Oc3ccccc3)cc2CN1[C@@H](CCCN(Cc1ccoc1)C1CCCCC1)C1CCCCC1 [Inhibitor 1379] | < 500 |
| NC1=Nc2ccc(Oc3ccccc3)cc2CN1[C@@H](CCCN(Cc1cn[nH]c1)C1CCCCC1)C1CCCCC1 [Inhibitor 1509] | < 50 |
| Cc1[nH]ncc1CN(CCC[C@@H](C1CCCCC1)N1Cc2cc(Oc3ccccc3)ccc2N=C1N)C1CCCCC1 [Inhibitor 1519] | < 50 |
